Source: paper PMC10229121, “An acetylation-mediated chromatin switch governs H3K4 methylation read-write capability” (eLife, 2023)
“Also recorded” adds a separate entry of the source.

System: H3K4 methylation and H3 acetylation in MCF-7 breast cancer cells
Test: Middle-down mass spectrometry of histone H3 from MCF-7 cells ± KDAC inhibition (H3K4 methylation and H3 acetylation)
Type: cell-based
Conditions: for 0ac state, percent of total H3 / 1ac state, percent of total H3 / 2ac state, percent of total H3 / 3ac state, percent of total H3 / 4ac state, percent of total H3 / 5ac state, percent of total H3: MCF-7, 5 mM butyrate 1H; for percent H3K4me3: sheet percentsk4me3
Experimental: MCF-7 breast cancer cells (ATCC HTB-22) were grown in MEM (Gibco) supplemented with 10% fetal bovine serum (VWR), 100 I.U. penicillin, 100 µg/mL streptomycin (Corning), 0.01 mg/mL human recombinant insulin (Gibco), and 5 µg/mL plasmocin (Invivogen) at 37 °C and 5% CO2. HEK-293 (ATCC CRL-1573) was grown in DMEM (Gibco) supplemented with 10% fetal bovine serum (Corning), 100 I.U. penicillin, and 100 µg/mL streptomycin (Gibco) at 37 °C and 5% CO2. Both cell lines were authenticated via STR profiling and confirmed to be Mycoplasma negative.
For mass spectrometric (MS) analysis ± KDAC inhibition, cells were cultured in 150 mm dishes to ~80% confluence and treated with 5 mM sodium butyrate (or equivalent volume of water) in triplicate for 0, 10, 20, 30, 60, 120 min. […] Histones were acid extracted after nuclei isolation as described ([Holt et al., 2021]). Isolated histones were resuspended in 85 µL 5% acetonitrile, 0.2% trifluoroacetic acid (TFA), and resolved by offline high-performance liquid chromatography (HPLC) as described ([Holt et al., 2021]). […] After chromatographic separation and fraction collection, histone H3.1 was selected, diluted in 100 mM ammonium acetate (pH = 4), and digested with Glu-C protease (Roche) at 10:1 protein:enzyme for 1 hr at room temperature prior to mass spectrometric analysis.
The digested samples were diluted to 2 µg/µL. Online HPLC was performed on a U3000 RSLC nano Pro-flow system using a C3 column (Zorbax 300 SB-C3, 5 µm; Agilent). Samples were maintained at 4 °C and 1 µL injected for each analysis using a microliter pickup. […] The column eluant was introduced into an Orbitrap Fusion Lumos mass spectrometer (Thermo Fisher) by nano-electrospray ionization. A static spray voltage of 1900 V and an ion transfer tube temperature of 320 °C were set for the source.
A Fusion Lumos mass spectrometer was used to generate MS data. The 9th charge state of histone H3 was targeted for analysis. MS1 analysis was acquired in the orbitrap with a normal mass range and a 60 k resolution setting in positive ion mode. An Automatic Gain Control (AGC) target of 5.0E5 with a 200 ms maximum injection time, three microscans, and a scan range of 585–640 m/z was used to identify desired ions for fragmentation. MS2 acquisition was performed in both orbitrap and ion trap modes. Both modes used electron transfer dissociation (ETD), a reaction time of 18ms, and an injection time of 200 ms. A normal scan range was used for the orbitrap mode with a resolution setting of 30 k and an AGC target of 5.0E5, with two micro scans. A narrow scan range of 470–530 m/z, targeting ions indicative of K4 modification states, was used for the ion trap mode MS2 with an ACG target of 3.0E4, quadrupole isolation, maximum injection time of 100ms, and eight microscans.
These MS methods were used with two technical replicates per biological replicate (n=3). An MS ion trap mode with a targeted mass list was used to increase sensitivity to identify known low-abundance K4me3-containing proteoforms. The ion trap MS2 spectra were averaged for each H3 acetyl state based on known retention times, and the intensities of ions indicative of the K4 methylation states were manually recorded. Retention times for each acetyl state were approximated as 0ac 35–40 min, 1ac 45–55 min, 2ac 55–60 min, 3ac 62–68 min, 4ac 69–73 min, and 5ac 74–78 min. Precursor mass was used as an additional confirmation and filter of the correct acetyl state. For scans yielding low signal and high noise (i.e. 5ac at 0 min butyrate treatment), data were manually curated before averaging. Within acetyl states, the relative proportion of fragment ions for unmodified, mono-, di-, and tri-methylation of the H3K4 ion at respective m/z of 474, 488, 502, and 516 were recorded per MS run. Values were averaged across replicates of the same conditions and normalized to one hundred percent. A two-tailed t-test was used for significance. […]

Q: Which “0ac state, percent of total H3” value (AVG n=3) does the source give for `CCCC(=O)O` [sodium butyrate] here?
A: Its value is 38.12%.

Q: And the “1ac state, percent of total H3” value (AVG n=3)?
A: The value was 25.98%.

Q: And the “2ac state, percent of total H3” value (AVG n=3)?
A: Its value is 20.63%.

Q: And the “3ac state, percent of total H3” value (AVG n=3)?
A: The value was 12.03%.

Q: What about the “4ac state, percent of total H3” value (AVG n=3) of the same compound?
A: Its value is 2.14%.

Q: And the “5ac state, percent of total H3” value (AVG n=3)?
A: The value was 1.10%.

Q: And the “0ac state, percent of total H3” value (normalized, replicate 1)?
A: The value was 53.59%.

Q: And the “1ac state, percent of total H3” value (normalized, replicate 1)?
A: The value was 15.56%.

Q: What about the “2ac state, percent of total H3” value (normalized, replicate 1) of the same compound?
A: The value was 13.01%.

Q: What about the “3ac state, percent of total H3” value (normalized, replicate 1) of the same compound?
A: Its value is 15.85%.

Q: And the “4ac state, percent of total H3” value (normalized, replicate 1)?
A: The value was 1.53%.

Q: And the “5ac state, percent of total H3” value (normalized, replicate 1)?
A: The value was 0.47%.

Q: And the “0ac state, percent of total H3” value (normalized, replicate 2)?
A: The value was 28.79%.

Q: What about the “1ac state, percent of total H3” value (normalized, replicate 2) of the same compound?
A: Its value is 37.29%.

Q: What about the “2ac state, percent of total H3” value (normalized, replicate 2) of the same compound?
A: Its value is 21.30%.

Q: And the “3ac state, percent of total H3” value (normalized, replicate 2)?
A: The value was 8.21%.

Q: What about the “4ac state, percent of total H3” value (normalized, replicate 2) of the same compound?
A: The value was 3.37%.

Q: What about the “5ac state, percent of total H3” value (normalized, replicate 2) of the same compound?
A: Its value is 1.05%.

Q: What about the “0ac state, percent of total H3” value (normalized, replicate 3) of the same compound?
A: Its value is 31.98%.

Q: And the “1ac state, percent of total H3” value (normalized, replicate 3)?
A: Its value is 25.08%.

Q: What about the “2ac state, percent of total H3” value (normalized, replicate 3) of the same compound?
A: The value was 27.59%.

Q: And the “3ac state, percent of total H3” value (normalized, replicate 3)?
A: Its value is 12.04%.

Q: And the “4ac state, percent of total H3” value (normalized, replicate 3)?
A: Its value is 1.54%.

Q: What about the “5ac state, percent of total H3” value (normalized, replicate 3) of the same compound?
A: Its value is 1.77%.

Q: What about the “percent H3K4me3” value (MCF-7, 5 mM butyrate 10M, 0ac, AVG n=3) of the same compound?
A: Its value is 1.08%.

Q: What about the “percent H3K4me3” value (MCF-7, 5 mM butyrate 10M, 1ac, AVG n=3) of the same compound?
A: Its value is 0.40%.

Q: And the “percent H3K4me3” value (MCF-7, 5 mM butyrate 10M, 2ac, AVG n=3)?
A: Its value is 1.95%.

Q: What about the “percent H3K4me3” value (MCF-7, 5 mM butyrate 10M, 3ac, AVG n=3) of the same compound?
A: Its value is 2.18%.

Q: And the “percent H3K4me3” value (MCF-7, 5 mM butyrate 10M, 4ac, AVG n=3)?
A: Its value is 1.30%.

Q: And the “percent H3K4me3” value (MCF-7, 5 mM butyrate 10M, 5ac, AVG n=3)?
A: The value was 0.42%.

Q: What about the “percent H3K4me3” value (MCF-7, 5 mM butyrate 30M, 0ac, AVG n=3) of the same compound?
A: Its value is 1.93%.

Q: What about the “percent H3K4me3” value (MCF-7, 5 mM butyrate 30M, 1ac, AVG n=3) of the same compound?
A: Its value is 1.29%.

Q: What about the “percent H3K4me3” value (MCF-7, 5 mM butyrate 30M, 2ac, AVG n=3) of the same compound?
A: The value was 1.93%.

Q: What about the “percent H3K4me3” value (MCF-7, 5 mM butyrate 30M, 3ac, AVG n=3) of the same compound?
A: The value was 1.64%.

Q: What about the “percent H3K4me3” value (MCF-7, 5 mM butyrate 30M, 4ac, AVG n=3) of the same compound?
A: The value was 2.14%.

Q: And the “percent H3K4me3” value (MCF-7, 5 mM butyrate 30M, 5ac, AVG n=3)?
A: The value was 4.20%.

Q: And the “percent H3K4me3” value (MCF-7, 5 mM butyrate 60M, 1ac, AVG n=3)?
A: The value was 1.27%.

Q: And the “percent H3K4me3” value (MCF-7, 5 mM butyrate 60M, 2ac, AVG n=3)?
A: The value was 1.44%.

Q: And the “percent H3K4me3” value (MCF-7, 5 mM butyrate 60M, 3ac, AVG n=3)?
A: Its value is 1.39%.

Q: What about the “percent H3K4me3” value (MCF-7, 5 mM butyrate 120M, 0ac, AVG n=3) of the same compound?
A: Its value is 1.23%.

Q: What about the “percent H3K4me3” value (MCF-7, 5 mM butyrate 120M, 1ac, AVG n=3) of the same compound?
A: Its value is 1.92%.

Q: And the “percent H3K4me3” value (MCF-7, 5 mM butyrate 120M, 2ac, AVG n=3)?
A: The value was 2.41%.

Q: What about the “percent H3K4me3” value (MCF-7, 5 mM butyrate 120M, 3ac, AVG n=3) of the same compound?
A: The value was 1.99%.

Q: And the “percent H3K4me3” value (MCF-7, 5 mM butyrate 120M, 4ac, AVG n=3)?
A: Its value is 4.58%.

Q: And the “percent H3K4me3” value (MCF-7, 5 mM butyrate 120M, 5ac, AVG n=3)?
A: Its value is 21.35%.

Q: What about the “H3K4 methylation, in words” value (MCF-7, 5 mM sodium butyrate) of the same compound?
A: Its value is “increase in all H3K4 methyl states relative to the unmodified state concomitant with increasing states of H3 acetylation; also recorded: H3K4me3 levels most dramatically increased in tandem with the 5ac H3 state; also recorded: H3K4 methylation increased for the most highly acetylated proteoforms”.

Q: And the “H3 poly-acetylation, in words” value (MCF-7, 5 mM sodium butyrate)?
A: Its value is “H3 poly-acetylation rapidly increased”.
